Experimental data from patent publication US11236102B2, “Oxabicycloheptane prodrugs” (Lixte Biotechnology, Inc., priority 2015, dated 2022).
“And” between values parts separate entries of the source, which are not always exact repeats. Identical values can stand only once. Like-named read-outs stand apart in the source and are kept apart here.

Test: Pharmacokinetic study of 151 (iv, oral) in SD rats: 151 and 100 in plasma
Assay type: in vivo
Procedure: The absolute bioavailability was evaluated.
To each sample, 160 μL of acetonitrile were added.
The mass spectrometer was operated in the positive mode.
Quantification was achieved by the external standard method.
Calibration Curve for Plasma Samples
LB100 concentrations of the LB151 plasma samples were also measured and pharmacokinetic parameters were calculated.

[1] = 151 IV 1.0 mg/kg, SD rats, individual rats, 1 mg/kg

## COC(=O)C1C2CCC(O2)C1C(=O)N1CCN(C)CC1 (stereo not shown) [Compound 151]
151 IV 1.0 mg/kg, SD rats, 0.083 h, individual rats, 1 mg/kg
  151 plasma concentration: 1301 ng/mL
151 IV 1.0 mg/kg, SD rats, 0.250 h, individual rats, 1 mg/kg
  151 plasma concentration: 949 ng/mL
151 IV 1.0 mg/kg, SD rats, 0.50 h, individual rats, 1 mg/kg
  151 plasma concentration: 607 ng/mL
151 IV 1.0 mg/kg, SD rats, 1.0 h, individual rats, 1 mg/kg
  151 plasma concentration: 314 ng/mL
151 IV 1.0 mg/kg, SD rats, 2.0 h, individual rats, 1 mg/kg
  151 plasma concentration: 103 ng/mL
151 IV 1.0 mg/kg, SD rats, 3.0 h, individual rats, 1 mg/kg
  151 plasma concentration: 28.1 ng/mL
151 IV 1.0 mg/kg, SD rats, 5.0 h, individual rats, 1 mg/kg
  151 plasma concentration: 9.75 ng/mL and 3.63 ng/mL
151 IV 1.0 mg/kg, SD rats, 7.0 h, individual rats, 1 mg/kg
  151 plasma concentration: 12.2 ng/mL and 1.83 ng/mL
151 IV 1.0 mg/kg, SD rats, 9.0 h, individual rats, 1 mg/kg
  151 plasma concentration: BLQ
151 IV 1.0 mg/kg, SD rats, 24 h, individual rats
  151 plasma concentration: BLQ
[1]
  CL of 151: 15.9 mL/min/kg
  Vss of 151: 0.775 L/kg
151 PO 10 mg/kg vs IV 1.0 mg/kg, SD rats, mean, based on AUC0-∞
  F of 151: 54.6%
151 PO 10 mg/kg, SD rats, 0.25 h, individual rats, 10 mg/kg
  151 plasma concentration: 2029 ng/mL and 2731 ng/mL
151 PO 10 mg/kg, SD rats, 0.50 h, individual rats, 10 mg/kg
  151 plasma concentration: 3934 ng/mL and 3343 ng/mL
151 PO 10 mg/kg, SD rats, 1.0 h, individual rats, 10 mg/kg
  151 plasma concentration: 2581 ng/mL and 2538 ng/mL
151 PO 10 mg/kg, SD rats, 2.0 h, individual rats, 10 mg/kg
  151 plasma concentration: 1237 ng/mL and 1582 ng/mL
151 PO 10 mg/kg, SD rats, 3.0 h, individual rats, 10 mg/kg
  151 plasma concentration: 660 ng/mL and 794 ng/mL
151 PO 10 mg/kg, SD rats, 5.0 h, individual rats, 10 mg/kg
  151 plasma concentration: 99.4 ng/mL and 192 ng/mL
151 PO 10 mg/kg, SD rats, 7.0 h, individual rats, 10 mg/kg
  151 plasma concentration: 42.6 ng/mL and 20.7 ng/mL and 68.0 ng/mL
151 PO 10 mg/kg, SD rats, 9.0 h, individual rats, 10 mg/kg
  151 plasma concentration: 38.2 ng/mL and 66.1 ng/mL
151 PO 10 mg/kg, SD rats, 24 h, individual rats
  151 plasma concentration: BLQ
151 oral 10 mg/kg, SD rats (n=3)
  time of peak plasma concentration: 0.5 h
male, Sprague-Dawley, rat, in vivo, iv, 1 mg/kg, 151 IV 1.0 mg/kg, SD rats, 0.083 h, individual rats
  concentration at 0.083 h: 1680 ng/mL
male, Sprague-Dawley, rat, in vivo, iv, 1 mg/kg, 151 IV 1.0 mg/kg, SD rats, 0.083 h, mean
  concentration at 0.083 h: 1490 ng/mL
male, Sprague-Dawley, rat, in vivo, iv, 1 mg/kg, 151 IV 1.0 mg/kg, SD rats, 0.250 h, individual rats
  concentration at 0.25 h: 1160 ng/mL
male, Sprague-Dawley, rat, in vivo, iv, 1 mg/kg, 151 IV 1.0 mg/kg, SD rats, 0.250 h, mean
  concentration at 0.25 h: 1060 ng/mL
male, Sprague-Dawley, rat, in vivo, iv, 1 mg/kg, 151 IV 1.0 mg/kg, SD rats, 0.50 h, individual rats
  concentration at 0.5 h: 760 ng/mL
male, Sprague-Dawley, rat, in vivo, iv, 1 mg/kg, 151 IV 1.0 mg/kg, SD rats, 0.50 h, mean
  concentration at 0.5 h: 683 ng/mL
male, Sprague-Dawley, rat, in vivo, iv, 1 mg/kg, 151 IV 1.0 mg/kg, SD rats, 1.0 h, individual rats
  concentration at 1 h: 381 ng/mL
male, Sprague-Dawley, rat, in vivo, iv, 1 mg/kg, 151 IV 1.0 mg/kg, SD rats, 1.0 h, mean
  concentration at 1 h: 348 ng/mL
male, Sprague-Dawley, rat, in vivo, iv, 1 mg/kg, 151 IV 1.0 mg/kg, SD rats, 2.0 h, individual rats
  concentration at 2 h: 95.8 ng/mL
male, Sprague-Dawley, rat, in vivo, iv, 1 mg/kg, 151 IV 1.0 mg/kg, SD rats, 2.0 h, mean
  concentration at 2 h: 99.6 ng/mL
male, Sprague-Dawley, rat, in vivo, iv, 1 mg/kg, 151 IV 1.0 mg/kg, SD rats, 3.0 h, individual rats
  concentration at 3 h: 39.6 ng/mL
male, Sprague-Dawley, rat, in vivo, iv, 1 mg/kg, 151 IV 1.0 mg/kg, SD rats, 3.0 h, mean
  concentration at 3 h: 33.8 ng/mL
male, Sprague-Dawley, rat, in vivo, iv, 1 mg/kg, 151 IV 1.0 mg/kg, SD rats, 5.0 h, mean
  concentration at 5 h: 6.69 ng/mL
male, Sprague-Dawley, rat, in vivo, iv, 1 mg/kg, 151 IV 1.0 mg/kg, SD rats, 7.0 h, mean
  concentration at 7 h: 7.02 ng/mL
male, Sprague-Dawley, rat, in vivo, iv, 1 mg/kg, 151 IV 1.0 mg/kg, SD rats, 9.0 h, individual rats
  concentration at 9 h: 2.01 ng/mL
male, Sprague-Dawley, rat, in vivo, iv, 1 mg/kg, 151 IV 1.0 mg/kg, SD rats, 9.0 h, mean
  concentration at 9 h: 1 ng/mL
male, Sprague-Dawley, rat, in vivo, iv, 1 mg/kg, 151 IV 1.0 mg/kg, SD rats, individual rats, read-out: CL of 151 (converted)
  clearance: 12.7 mL/min/kg
male, Sprague-Dawley, rat, in vivo, iv, 1 mg/kg, 151 IV 1.0 mg/kg, SD rats, individual rats, read-out: Vss of 151
  Vd: 0.696 L/kg
male, Sprague-Dawley, rat, in vivo, iv, 1 mg/kg, 151 IV 1.0 mg/kg, SD rats, mean, read-out: CL of 151 (converted)
  clearance: 14.3 mL/min/kg
male, Sprague-Dawley, rat, in vivo, iv, 1 mg/kg, 151 IV 1.0 mg/kg, SD rats, mean, read-out: Vss of 151
  Vd: 0.736 L/kg
male, Sprague-Dawley, rat, in vivo, iv, 1 mg/kg, 151 iv 1.0 mg/kg (n=2), read-out: elimination half-life (converted)
  half-life: 53.4 min
male, Sprague-Dawley, rat, in vivo, iv, 1 mg/kg, 151 iv 1.0 mg/kg (n=2), read-out: mean clearance from rat plasma (converted)
  clearance: 14.3 mL/min/kg
male, Sprague-Dawley, rat, in vivo, iv, 1 mg/kg, 151 iv 1.0 mg/kg (n=2), read-out: volume of distribution at steady state
  Vd: 0.736 L/kg
